Measurements from patent US11053204B2, “Pyrimidinyloxy benzene derivatives as herbicides” (FMC Corporation, priority 2015, dated 2021).

How the values were obtained:
Type in all cases: in vivo
[1] = tested on: barnyardgrass (Echinochloa crus-galli); assay: Test A postemergence, visual injury rating; details: 0 is no effect, 100 is complete control; for Barnyardgrass plant response rating: 0 to 100 scale, approximately 10 days
Text: (§1) Seeds of plant species selected from barnyardgrass (Echinochloa crus-galli), kochia (Kochia scoparia), ragweed (common ragweed, Ambrosia elatior), Italian ryegrass (Lolium multiflorum), large (Lg) crabgrass (Digitaria sanguinalis), giant foxtail (Setaria faberii), morningglory (Ipomoea spp.), pigweed (Amaranthus retroflexus), velvetleaf (Abutilon theophrasti), wheat (Triticum aestivum), and corn (Zea mays) were planted into a blend of loam soil and sand and treated preemergence with a directed soil spray using test chemicals formulated in a non-phytotoxic solvent mixture which included a surfactant.
(§2) At the same time, plants selected from these crop and weed species and also blackgrass (Alopecurus myosuroides), and galium (catchweed bedstraw, Galium aparine) were planted in pots containing the same blend of loam soil and sand and treated with postemergence applications of test chemicals formulated in the same manner. Plants ranged in height from 2 to 10 cm and were in the one- to two-leaf stage for the postemergence treatment. Treated plants and untreated controls were maintained in a greenhouse for approximately 10 days, after which time all treated plants were compared to untreated controls and visually evaluated for injury. Plant response ratings, summarized in Table A, are based on a 0 to 100 scale where 0 is no effect and 100 is complete control. A dash (-) response means no test result.

[2] = tested on: Italian ryegrass (Lolium multiflorum); assay: Test A postemergence, visual injury rating; details: 0 is no effect, 100 is complete control; for Ryegrass, Italian plant response rating: 0 to 100 scale, approximately 10 days
Text: as §1, §2

[3] = tested on: galium (catchweed bedstraw, Galium aparine); assay: Test A postemergence, visual injury rating; details: 0 is no effect, 100 is complete control; for Galium plant response rating: 0 to 100 scale, approximately 10 days
Text: as §1, §2

[4] = tested on: ragweed (common ragweed, Ambrosia elatior); assay: Test A postemergence, visual injury rating; details: 0 is no effect, 100 is complete control; for Ragweed plant response rating: 0 to 100 scale, approximately 10 days
Text: as §1, §2

[5] = tested on: giant foxtail (Setaria faberii); assay: Test A postemergence, visual injury rating; details: 0 is no effect, 100 is complete control; for Foxtail, Giant plant response rating: 0 to 100 scale, approximately 10 days
Text: as §1, §2

kochia (Kochia scoparia) [6] = assay: Test A postemergence, visual injury rating; details: 0 to 100 scale, 0 is no effect, 100 is complete control, approximately 10 days
Text: as §1, §2

corn (Zea mays) = assay: Test A postemergence, visual injury rating; details: 0 is no effect, 100 is complete control; for Corn plant response rating: 0 to 100 scale, approximately 10 days
Text: as §1, §2

[7] = tested on: wheat (Triticum aestivum); assay: Test A postemergence, visual injury rating; details: 0 is no effect, 100 is complete control; for Wheat plant response rating: 0 to 100 scale, approximately 10 days
Text: as §1, §2

[8] = tested on: blackgrass (Alopecurus myosuroides); assay: Test A postemergence, visual injury rating; details: 0 is no effect, 100 is complete control; for Blackgrass plant response rating: 0 to 100 scale, approximately 10 days
Text: as §1, §2

[9] = tested on: pigweed (Amaranthus retroflexus); assay: Test A postemergence, visual injury rating; details: 0 is no effect, 100 is complete control; for Pigweed plant response rating: 0 to 100 scale, approximately 10 days
Text: as §1, §2

[10] = tested on: barnyardgrass (Echinochloa crus-galli); assay: Test B flooded paddy test, plant response rating; details: 250 g ai/ha; Flood; scale of 0 to 100 where 0 is no effect and 100 is complete control; 13 to 15 days
Text: (§3) At time of treatment, test pots were flooded to 3 cm above the soil surface, treated by application of test compounds directly to the paddy water, and then maintained at that water depth for the duration of the test. Treated plants and controls were maintained in a greenhouse for 13 to 15 days, after which time all species were compared to controls and visually evaluated. […] A dash (-) response means no test result.

[11] = tested on: ducksalad (Heteranthera limosa); assay: Test B flooded paddy test, plant response rating; details: 250 g ai/ha; Flood; scale of 0 to 100 where 0 is no effect and 100 is complete control; 13 to 15 days
Text: as §3

[12] = tested on: sedge, umbrella (small-flower umbrella sedge, Cyperus difformis); assay: Test B flooded paddy test, plant response rating; details: 250 g ai/ha; Flood; scale of 0 to 100 where 0 is no effect and 100 is complete control; 13 to 15 days
Text: as §3

rice (Oryza sativa) = assay: Test B flooded paddy test, plant response rating; details: 250 g ai/ha; Flood; scale of 0 to 100 where 0 is no effect and 100 is complete control; 13 to 15 days
Text: as §3

[13] = tested on: barnyardgrass (Echinochloa crus-galli); assay: Test A preemergence, visual injury rating
Text: as §1, §2

[14] = tested on: Italian ryegrass (Lolium multiflorum); assay: Test A preemergence, visual injury rating
Text: as §1, §2

[15] = tested on: ragweed (common ragweed, Ambrosia elatior); assay: Test A preemergence, visual injury rating
Text: as §1, §2

[16] = tested on: giant foxtail (Setaria faberii); assay: Test A preemergence, visual injury rating
Text: as §1, §2

kochia (Kochia scoparia) [17] = assay: Test A preemergence, visual injury rating
Text: as §1, §2

[18] = tested on: pigweed (Amaranthus retroflexus); assay: Test A preemergence, visual injury rating
Text: as §1, §2

[19] = 31 g ai/ha, 0 to 100 scale, 0 no effect, 100 complete control
[20] = 125 g ai/ha, 0 to 100 scale (0 no effect, 100 complete control)
[21] = 500 g ai/ha, 0 to 100 scale (0 no effect, 100 complete control)

SMILES: FC(F)(F)CCCCCc1c(Cl)cccc1Oc1ncc(Cl)cn1 [Compound 124]
- Barnyardgrass plant response rating ([1]; 31 g ai/ha): 10
- Barnyardgrass plant response rating ([1]; 125 g ai/ha): 60
- Ryegrass, Italian plant response rating ([2]; 31 g ai/ha): 0
- Ryegrass, Italian plant response rating ([2]; 125 g ai/ha): 20
- Galium plant response rating ([3]; 31 g ai/ha): 70
- Galium plant response rating ([3]; 125 g ai/ha): 90
- Ragweed plant response rating ([4]; 31 g ai/ha): 10
- Ragweed plant response rating ([4]; 125 g ai/ha): 20
- Foxtail, Giant plant response rating ([5]; 31 g ai/ha): 30
- Foxtail, Giant plant response rating ([5]; 125 g ai/ha): 70
- Kochia plant response rating (kochia (Kochia scoparia) [6]; 31 g ai/ha): 50
- Kochia plant response rating (kochia (Kochia scoparia) [6]; 125 g ai/ha): 80
- Corn plant response rating (corn (Zea mays); 31 g ai/ha): 10
- Corn plant response rating (corn (Zea mays); 125 g ai/ha): 20
- Wheat plant response rating ([7]; 31 g ai/ha): 10
- Wheat plant response rating ([7]; 125 g ai/ha): 10
- Blackgrass plant response rating ([8]; 31 g ai/ha): 20
- Blackgrass plant response rating ([8]; 125 g ai/ha): 60
- Pigweed plant response rating ([9]; 31 g ai/ha): 70
- Pigweed plant response rating ([9]; 125 g ai/ha): 100
- Plant response rating, Barnyardgrass [10]: 45
- Plant response rating, Ducksalad [11]: 100
- Plant response rating, Sedge, Umbrella [12]: 100
- Plant response rating, Rice (rice (Oryza sativa)): 40
- Plant response rating, Barnyardgrass [13, 19]: 10
- Plant response rating, Barnyardgrass [13, 20]: 80
- Plant response rating, Ryegrass, Italian [14, 19]: 0
- Plant response rating, Ryegrass, Italian [14, 20]: 20
- Plant response rating, Ragweed [15, 19]: 0
- Plant response rating, Ragweed [15, 20]: 0
- Plant response rating, Foxtail, Giant [16, 19]: 60
- Plant response rating, Foxtail, Giant [16, 20]: 100
- Plant response rating, Kochia (kochia (Kochia scoparia) [17]; [19]): 0
- Plant response rating, Kochia (kochia (Kochia scoparia) [17]; [20]): 10
- Plant response rating, Pigweed [18, 19]: 40
- Plant response rating, Pigweed [18, 20]: 100

SMILES: CCOCc1c(Br)cccc1Oc1ncc(Cl)cn1 [Compound 106]
- Barnyardgrass plant response rating ([1]; 125 g ai/ha): 40
- Barnyardgrass plant response rating (0 to 100 scale) ([1]; 500 g ai/ha): 100
- Ryegrass, Italian plant response rating ([2]; 125 g ai/ha): 0
- Ryegrass, Italian plant response rating (0 to 100 scale) ([2]; 500 g ai/ha): 0
- Galium plant response rating ([3]; 125 g ai/ha): 0
- Galium plant response rating (0 to 100 scale) ([3]; 500 g ai/ha): 10
- Ragweed plant response rating ([4]; 125 g ai/ha): 0
- Ragweed plant response rating (0 to 100 scale) ([4]; 500 g ai/ha): 0
- Foxtail, Giant plant response rating ([5]; 125 g ai/ha): 10
- Foxtail, Giant plant response rating (0 to 100 scale) ([5]; 500 g ai/ha): 70
- Corn plant response rating (corn (Zea mays); 125 g ai/ha): 0
- Corn plant response rating (0 to 100 scale) (corn (Zea mays); 500 g ai/ha): 10
- Wheat plant response rating ([7]; 125 g ai/ha): 0
- Wheat plant response rating (0 to 100 scale) ([7]; 500 g ai/ha): 0
- Blackgrass plant response rating ([8]; 125 g ai/ha): 0
- Blackgrass plant response rating (0 to 100 scale) ([8]; 500 g ai/ha): 20
- Pigweed plant response rating ([9]; 125 g ai/ha): 10
- Pigweed plant response rating (0 to 100 scale) ([9]; 500 g ai/ha): 20
- Plant response rating, Barnyardgrass [10]: 0
- Plant response rating, Ducksalad [11]: 0
- Plant response rating, Sedge, Umbrella [12]: 0
- Plant response rating, Rice (rice (Oryza sativa)): 0
- Barnyardgrass plant response rating [13, 20]: 0
- Barnyardgrass plant response rating [13, 21]: 100
- Plant response rating, Ryegrass, Italian [14, 20]: 0
- Ryegrass, Italian plant response rating [14, 21]: 10
- Plant response rating, Ragweed [15, 20]: 0
- Ragweed plant response rating [15, 21]: 0
- Plant response rating, Foxtail, Giant [16, 20]: 80
- Foxtail, Giant plant response rating [16, 21]: 100
- Plant response rating, Kochia (kochia (Kochia scoparia) [17]; [20]): 30
- Kochia plant response rating (kochia (Kochia scoparia) [17]; [21]): 90
- Plant response rating, Pigweed [18, 20]: 30
- Pigweed plant response rating [18, 21]: 70

SMILES: O=C(OCCCC(F)(F)F)c1c(Oc2ncc(Cl)cn2)cccc1C(F)(F)F [Compound 65]
- Barnyardgrass plant response rating (0 to 100 scale) ([1]; 125 g ai/ha): 30
- Barnyardgrass plant response rating (0 to 100 scale) ([1]; 500 g ai/ha): 70
- Ryegrass, Italian plant response rating (0 to 100 scale) ([2]; 125 g ai/ha): 0
- Ryegrass, Italian plant response rating (0 to 100 scale) ([2]; 500 g ai/ha): 0
- Galium plant response rating (0 to 100 scale) ([3]; 125 g ai/ha): 20
- Galium plant response rating (0 to 100 scale) ([3]; 500 g ai/ha): 70
- Ragweed plant response rating (0 to 100 scale) ([4]; 125 g ai/ha): 10
- Ragweed plant response rating (0 to 100 scale) ([4]; 500 g ai/ha): 30
- Foxtail, Giant plant response rating (0 to 100 scale) ([5]; 125 g ai/ha): 40
- Foxtail, Giant plant response rating (0 to 100 scale) ([5]; 500 g ai/ha): 90
- Corn plant response rating (0 to 100 scale) (corn (Zea mays); 125 g ai/ha): 10
- Corn plant response rating (0 to 100 scale) (corn (Zea mays); 500 g ai/ha): 20
- Wheat plant response rating (0 to 100 scale) ([7]; 125 g ai/ha): 0
- Wheat plant response rating (0 to 100 scale) ([7]; 500 g ai/ha): 0
- Blackgrass plant response rating (0 to 100 scale) ([8]; 125 g ai/ha): 20
- Blackgrass plant response rating (0 to 100 scale) ([8]; 500 g ai/ha): 40
- Pigweed plant response rating (0 to 100 scale) ([9]; 125 g ai/ha): 90
- Pigweed plant response rating (0 to 100 scale) ([9]; 500 g ai/ha): 100
- Plant response rating, Barnyardgrass [10]: 0
- Plant response rating, Ducksalad [11]: 70
- Plant response rating, Sedge, Umbrella [12]: 85
- Plant response rating, Rice (rice (Oryza sativa)): 0
- Barnyardgrass plant response rating [13, 20]: 30
- Barnyardgrass plant response rating [13, 21]: 100
- Ryegrass, Italian plant response rating [14, 20]: 10
- Ryegrass, Italian plant response rating [14, 21]: 30
- Ragweed plant response rating [15, 20]: 0
- Ragweed plant response rating [15, 21]: 80
- Foxtail, Giant plant response rating [16, 20]: 100
- Foxtail, Giant plant response rating [16, 21]: 100
- Kochia plant response rating (kochia (Kochia scoparia) [17]; [20]): 60
- Kochia plant response rating (kochia (Kochia scoparia) [17]; [21]): 90
- Pigweed plant response rating [18, 20]: 100
- Pigweed plant response rating [18, 21]: 100
